The test concerns HSV-1. As to the kind of experiment: HSV-1 infection of Vero 76 cells, viral DNA detected by hybridization capture (chemiluminescence). The class given is cell-based. The following applies: Human alphaherpesvirus 1; HSV-1 in Vero 76 cells, MOI=0.001, 40-48 hours at 37° C. As for the experimental part: Vero 76 cells were maintained in MEM with Earle's salts, L-glutamine, 8% FBS (Hyclone, A-1111-L) and 100 units/mL Penicillin-100 μg/mL Streptomycin. For assay conditions, FBS was reduced to 2%. Cells are seeded into 96-well tissue culture plates at a density of 5×10^4 cells/well after being incubated for 45 min at 37° C. in the presence of HSV-1 or HSV-2 (MOI=0.001). Test compounds are added to the wells and the plates are incubated at 37° C. for 40-48 hours. Cell lysates are prepared as follows: media was removed and replaced with 150 VL/well 0.2 N NaOH with 1% Igepal CA 630 or NP-40. Plates were incubated up to 14 days at room temperature in a humidified chamber to prevent evaporation.
For the detection probe, a gel-purified, digoxigenin-labeled, 710-bp PCR fragment of the HSV UL-15 sequence was utilized. […]
Twenty-seven (27) μL of cell lysate was combined with 45 μL of hybridization solution (final concentration: 3M GuSCN, 50 mM EDTA, 100 μg/ml salmon sperm DNA, 5× Denhardt's solution, 0.25×APE, and 5 ng of the digoxigenin-labeled detection probe). […] The plates were incubated at room temperature for 30 minutes and chemiluminescence was measured in a Wallac Victor reader.

One may read the IC50 as the concentration that inhibits the measured activity by half. A low value points to higher potency.

SMILES strings stand for the structures.

With `CCSc1cc(Cl)cc2c(-c3ccnc(NC4CCCC4)n3)c(-c3ccc(F)cc3)nn12` [Example 32, N-{4-[5-Chloro-7-(ethylsulfanyl)-2-(4-fluorophenyl)pyrazolo[1,5-α]pyridin-3-yl]-2-pyrimidinyl}-N-cyclopentylamine], half-maximal inhibition (IC50) required 2000 nM.

`CSc1cc(N2CCOCC2)cc2c(-c3ccnc(NC4CCCC4)n3)c(-c3ccc(F)cc3)nn12` [Example 44, N-Cyclopentyl-4-[2-(4-fluorophenyl)-7-(methylthio)-5-morpholin-4-ylpyrazolo[1,5-α]pyridin-3-yl]pyrimidin-2-amine] came in with an IC50 of 500 nM.

Values taken from patent publication US7109209B2, “Pyrazolopyridines, process for their preparation and use as therapeutic compounds” (SmithKline Beecham Corporation, priority 2001, dated 2006).
